In one assay the test system is Per2-dLuc U2OS cells. Description: Circadian luminescence period assay, Per2-dLuc U2OS cells. It counts as cell-based, human. To be noted: for Effect of kinase inhibitor on circadian period length: threefold serial dilution starting at 100 μM; for Circadian period length: 8 μM, mean ± SEM, control 24.2 ± […]. As to the method: Per2-dLuc U2OS osteosarcoma and Bmal1-dLuc U2OS osteosarcoma reporter cell lines were gifts from Dr Andrew Liu, University of Memphis, USA ([Liu et al, 2008]). […] The cells were cultured at 37°C, 5% CO2 in a standard humidified incubator.

A further assay relates to U2OS cells. Kind of assay: TMT quantitative proteomics of compound-treated U2OS cells. Conditions: 10 μM, 48 h, vs DMSO. It counts as cell-based, human.
In another assay the test system is Synechococcus elongatus. Description: Luminescence rhythm period assay in cyanobacteria. Conditions: 3, 8, 16 and 32 μM.
A further assay addresses T1, ERK1/MAPK3 (Homo sapiens, UniProt P27361).
T1 construct: purchased Reaction Biology
Description: Radiometric HotSpot kinase assay. The class given is biochemical. Conditions: read-out: Enzyme activity (%) ERK1/MAPK3. As to the method:
(§1) In brief, specific kinase/substrate pairs were mixed in a buffer containing 20 mM Hepes (pH 7.5), 10 mM MgCl2, 1 mM EGTA, 0.02% Brij35, 0.02 mg/ml BSA, 0.1 mM Na3VO4, 2 mM DTT, and 1% DMSO. […] After a 20-min incubation, ATP (cat. no. A7699; Sigma-Aldrich) and [γ-^33P] ATP (cat. no. NEG602H001MC; PerkinElmer) were added at a final total concentration of […].

In the next assay the target is T2, CDK2 (Homo sapiens, UniProt P24941).
T2 construct: purchased Reaction Biology
Kind of assay: Radiometric HotSpot kinase assay. It counts as biochemical. Conditions: n = 3, remaining activity vs DMSO, read-out: Enzyme activity (%) CDK2. As to the method: as §1

A further assay has as its target T3, CAMK2d (Homo sapiens, UniProt Q13557).
T3 construct: purchased Reaction Biology
Kind of assay: Radiometric HotSpot kinase assay. The class given is biochemical. Conditions: read-out: Enzyme activity (%) CAMK2d. On the procedure: as §1

A further assay has as its target T4, ERK2/MAPK1 (Homo sapiens, UniProt P28482).
T4 construct: purchased Reaction Biology
Description: Radiometric HotSpot kinase assay. To be noted: read-out: Enzyme activity (%) ERK2/MAPK1. It counts as biochemical. As to the method:
as §1

The target in another assay is T5, CDK7 (Homo sapiens, UniProt P50613).
T5 construct: purchased Reaction Biology
Description: Radiometric HotSpot kinase assay. Conditions: read-out: Enzyme activity (%) CDK7. The class given is biochemical. As to the method:
as §1

The target in another assay is T6, CAMK1d (Homo sapiens, UniProt Q8IU85).
T6 construct: purchased Reaction Biology
Kind of assay: Radiometric HotSpot kinase assay. The class given is biochemical. Conditions: read-out: Enzyme activity (%) CAMK1d. As to the method:
as §1

The next assay concerns the target T7, MST4/STK26 (Homo sapiens, UniProt Q9P289).
T7 construct: purchased Reaction Biology
Description: Radiometric HotSpot kinase assay. Conditions: read-out: Enzyme activity (%) MST4/STK26. The class given is biochemical. As to the method: as §1

For a further assay, the target named is T8, CK2a (Homo sapiens, UniProt P68400).
T8 construct: purchased Reaction Biology
Description: Radiometric HotSpot kinase assay. It counts as biochemical. To be noted: read-out: Enzyme activity (%) CK2a. On the procedure:
as §1

Another assay addresses T9, TNIK (Homo sapiens, UniProt Q9UKE5).
T9 construct: purchased Reaction Biology
Description: Radiometric HotSpot kinase assay. To be noted: for remaining activity at 100 µM: read-out: Enzyme activity (%) TNIK. The class given is biochemical. As to the method: as §1

The target of a further assay is T10, CK1d (Homo sapiens, UniProt P48730).
T10 construct: purchased Reaction Biology
Kind of assay: Radiometric HotSpot kinase assay. To be noted: n = 3, remaining activity vs DMSO, read-out: Enzyme activity (%) CK1d. The class given is biochemical. As to the method: as §1

The mark [1] stands for this setting: 100 μM, n = 3, remaining activity vs DMSO.

Like-named read-outs stand apart in the source and are kept apart here.

T9 sequence (Q9UKE5 whole entry): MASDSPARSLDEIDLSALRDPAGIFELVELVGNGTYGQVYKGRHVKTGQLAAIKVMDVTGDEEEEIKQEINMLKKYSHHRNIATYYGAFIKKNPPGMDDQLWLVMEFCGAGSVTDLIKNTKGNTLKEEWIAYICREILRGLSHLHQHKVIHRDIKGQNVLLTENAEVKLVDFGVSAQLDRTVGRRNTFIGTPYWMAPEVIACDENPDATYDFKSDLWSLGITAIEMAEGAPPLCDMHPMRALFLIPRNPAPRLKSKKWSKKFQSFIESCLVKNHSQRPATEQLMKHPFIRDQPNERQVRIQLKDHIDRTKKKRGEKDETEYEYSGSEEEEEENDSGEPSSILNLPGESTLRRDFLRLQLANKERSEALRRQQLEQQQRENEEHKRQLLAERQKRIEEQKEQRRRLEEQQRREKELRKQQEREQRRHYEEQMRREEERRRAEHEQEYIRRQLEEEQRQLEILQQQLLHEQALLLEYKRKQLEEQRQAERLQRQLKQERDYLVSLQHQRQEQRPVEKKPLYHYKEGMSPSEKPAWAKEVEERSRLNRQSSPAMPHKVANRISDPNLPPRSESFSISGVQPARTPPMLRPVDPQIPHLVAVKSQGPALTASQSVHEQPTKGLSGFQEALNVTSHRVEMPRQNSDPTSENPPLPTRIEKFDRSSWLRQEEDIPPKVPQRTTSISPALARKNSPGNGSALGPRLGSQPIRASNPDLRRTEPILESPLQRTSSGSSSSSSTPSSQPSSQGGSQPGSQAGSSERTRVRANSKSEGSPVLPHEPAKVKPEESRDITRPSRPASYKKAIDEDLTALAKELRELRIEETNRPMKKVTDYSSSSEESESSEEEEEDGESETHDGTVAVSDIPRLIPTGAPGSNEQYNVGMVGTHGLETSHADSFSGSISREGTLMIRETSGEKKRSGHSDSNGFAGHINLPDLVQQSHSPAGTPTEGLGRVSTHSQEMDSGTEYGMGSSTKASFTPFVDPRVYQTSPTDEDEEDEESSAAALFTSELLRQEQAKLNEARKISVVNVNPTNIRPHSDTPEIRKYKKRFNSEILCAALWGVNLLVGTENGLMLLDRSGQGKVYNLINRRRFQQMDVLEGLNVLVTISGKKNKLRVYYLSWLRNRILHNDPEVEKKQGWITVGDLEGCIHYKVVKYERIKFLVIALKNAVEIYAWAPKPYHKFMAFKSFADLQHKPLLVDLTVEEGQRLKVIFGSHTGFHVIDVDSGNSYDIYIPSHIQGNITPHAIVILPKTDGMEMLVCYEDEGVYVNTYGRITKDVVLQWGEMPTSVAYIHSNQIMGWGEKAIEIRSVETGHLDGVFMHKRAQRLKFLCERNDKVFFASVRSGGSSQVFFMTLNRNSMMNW
T1 sequence (P27361 whole entry): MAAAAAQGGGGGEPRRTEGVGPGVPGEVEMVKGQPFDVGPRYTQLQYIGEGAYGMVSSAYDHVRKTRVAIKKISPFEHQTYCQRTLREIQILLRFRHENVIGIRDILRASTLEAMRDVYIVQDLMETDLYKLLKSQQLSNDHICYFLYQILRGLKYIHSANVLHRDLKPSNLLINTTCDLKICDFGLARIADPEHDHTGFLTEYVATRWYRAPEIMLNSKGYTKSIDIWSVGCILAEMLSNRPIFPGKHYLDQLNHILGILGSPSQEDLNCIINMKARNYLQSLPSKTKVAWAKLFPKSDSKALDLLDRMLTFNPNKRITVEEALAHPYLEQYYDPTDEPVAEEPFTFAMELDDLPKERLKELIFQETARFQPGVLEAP
T6 sequence (Q8IU85 whole entry): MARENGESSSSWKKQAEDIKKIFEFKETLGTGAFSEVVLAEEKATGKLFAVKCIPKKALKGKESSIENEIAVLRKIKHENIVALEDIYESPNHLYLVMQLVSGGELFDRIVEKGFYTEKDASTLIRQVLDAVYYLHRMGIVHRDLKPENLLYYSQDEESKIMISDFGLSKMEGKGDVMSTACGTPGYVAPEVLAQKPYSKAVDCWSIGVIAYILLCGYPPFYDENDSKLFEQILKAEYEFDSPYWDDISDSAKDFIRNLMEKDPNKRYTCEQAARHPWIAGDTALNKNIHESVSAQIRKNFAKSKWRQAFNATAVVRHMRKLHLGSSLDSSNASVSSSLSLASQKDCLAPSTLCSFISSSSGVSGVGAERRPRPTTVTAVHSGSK
T5 sequence (P50613 whole entry): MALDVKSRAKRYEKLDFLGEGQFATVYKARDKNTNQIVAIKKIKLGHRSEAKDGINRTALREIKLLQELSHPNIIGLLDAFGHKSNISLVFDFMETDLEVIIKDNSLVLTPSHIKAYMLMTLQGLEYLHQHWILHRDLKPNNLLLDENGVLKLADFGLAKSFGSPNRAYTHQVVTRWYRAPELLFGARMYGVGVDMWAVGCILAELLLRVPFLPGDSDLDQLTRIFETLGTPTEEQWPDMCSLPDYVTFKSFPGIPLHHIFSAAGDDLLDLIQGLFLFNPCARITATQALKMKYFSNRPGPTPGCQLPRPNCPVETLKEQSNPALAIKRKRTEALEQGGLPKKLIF
T5 sequence (P51946 whole entry partner): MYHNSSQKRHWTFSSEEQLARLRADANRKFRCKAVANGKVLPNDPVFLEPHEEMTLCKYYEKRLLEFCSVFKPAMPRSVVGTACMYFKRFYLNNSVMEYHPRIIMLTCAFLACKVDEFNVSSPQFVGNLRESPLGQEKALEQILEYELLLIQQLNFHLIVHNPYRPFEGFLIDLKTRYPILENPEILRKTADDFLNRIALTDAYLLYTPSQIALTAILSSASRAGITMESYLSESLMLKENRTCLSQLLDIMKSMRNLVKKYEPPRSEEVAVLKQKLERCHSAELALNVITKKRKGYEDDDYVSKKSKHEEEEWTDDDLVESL
T5 sequence (P51948 whole entry partner): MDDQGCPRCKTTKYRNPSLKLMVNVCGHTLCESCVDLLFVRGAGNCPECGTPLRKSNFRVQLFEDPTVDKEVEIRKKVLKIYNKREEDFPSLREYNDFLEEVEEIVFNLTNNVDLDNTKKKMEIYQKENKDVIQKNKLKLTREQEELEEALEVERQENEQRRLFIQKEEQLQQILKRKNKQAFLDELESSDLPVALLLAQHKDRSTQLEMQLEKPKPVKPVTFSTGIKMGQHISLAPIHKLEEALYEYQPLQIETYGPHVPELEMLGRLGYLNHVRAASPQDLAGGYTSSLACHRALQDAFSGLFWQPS
T8 sequence (P68400 whole entry): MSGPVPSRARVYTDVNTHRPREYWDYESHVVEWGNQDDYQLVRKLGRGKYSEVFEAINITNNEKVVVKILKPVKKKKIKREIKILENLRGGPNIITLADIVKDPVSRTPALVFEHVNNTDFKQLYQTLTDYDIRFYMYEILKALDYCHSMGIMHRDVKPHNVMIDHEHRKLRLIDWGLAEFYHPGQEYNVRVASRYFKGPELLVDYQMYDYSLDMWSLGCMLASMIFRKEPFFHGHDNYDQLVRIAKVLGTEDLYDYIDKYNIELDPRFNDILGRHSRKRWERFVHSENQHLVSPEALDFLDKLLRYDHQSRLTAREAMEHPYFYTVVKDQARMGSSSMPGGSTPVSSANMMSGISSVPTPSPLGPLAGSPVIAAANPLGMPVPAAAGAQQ
T3 sequence (Q13557 whole entry): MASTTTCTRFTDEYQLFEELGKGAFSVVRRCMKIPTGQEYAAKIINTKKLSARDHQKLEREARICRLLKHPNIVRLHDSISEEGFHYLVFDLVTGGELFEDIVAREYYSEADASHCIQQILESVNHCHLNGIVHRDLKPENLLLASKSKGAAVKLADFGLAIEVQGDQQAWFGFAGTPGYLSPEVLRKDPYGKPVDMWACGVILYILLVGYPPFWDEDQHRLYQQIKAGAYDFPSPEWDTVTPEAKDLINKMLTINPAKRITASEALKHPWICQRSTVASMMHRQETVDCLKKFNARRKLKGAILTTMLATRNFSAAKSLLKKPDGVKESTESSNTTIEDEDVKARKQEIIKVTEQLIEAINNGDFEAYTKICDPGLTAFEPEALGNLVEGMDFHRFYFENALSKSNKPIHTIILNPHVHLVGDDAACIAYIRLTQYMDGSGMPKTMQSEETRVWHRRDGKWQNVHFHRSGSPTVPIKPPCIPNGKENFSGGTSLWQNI
T4 sequence (P28482 whole entry): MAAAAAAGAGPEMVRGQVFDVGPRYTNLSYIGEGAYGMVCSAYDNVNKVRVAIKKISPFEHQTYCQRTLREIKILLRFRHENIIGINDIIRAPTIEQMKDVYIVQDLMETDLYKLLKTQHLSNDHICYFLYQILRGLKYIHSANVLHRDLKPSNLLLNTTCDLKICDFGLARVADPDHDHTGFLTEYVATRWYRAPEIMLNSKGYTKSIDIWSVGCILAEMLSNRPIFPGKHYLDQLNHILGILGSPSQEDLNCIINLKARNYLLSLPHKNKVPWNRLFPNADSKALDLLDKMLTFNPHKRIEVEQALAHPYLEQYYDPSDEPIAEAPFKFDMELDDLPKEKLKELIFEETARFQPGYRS
T7 sequence (Q9P289 whole entry): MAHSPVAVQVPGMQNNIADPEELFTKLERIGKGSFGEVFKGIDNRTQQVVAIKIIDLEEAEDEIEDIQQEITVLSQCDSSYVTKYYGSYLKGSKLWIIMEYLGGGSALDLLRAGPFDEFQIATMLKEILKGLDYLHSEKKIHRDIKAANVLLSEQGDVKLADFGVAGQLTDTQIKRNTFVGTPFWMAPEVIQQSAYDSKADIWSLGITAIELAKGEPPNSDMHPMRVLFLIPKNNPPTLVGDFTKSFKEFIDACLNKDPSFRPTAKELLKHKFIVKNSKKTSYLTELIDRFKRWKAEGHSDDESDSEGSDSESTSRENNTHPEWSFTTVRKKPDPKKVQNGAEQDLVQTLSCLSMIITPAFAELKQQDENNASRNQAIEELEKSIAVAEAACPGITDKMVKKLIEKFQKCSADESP
Description for Synechococcus elongatus: The D730nm was maintained between 0.27 and 0.45 by dilution with fresh medium.
Circadian period–altering compounds (dissolved in DMSO, final 0.5% DMSO) were then added in the air medium to reach the different desired concentrations. […] Images were generated from integrated photon counts over 25 min every 30 min using Metamorph software (Molecular Devices). […] Exported images were composed into image stacks and were quantified in a time series using a custom script in NIH ImageJ software, applying the “Multi Measure” plugin.

Regarding `NC(=O)c1ccc(-c2nc(-c3ccc4c(c3)OCCO4)c(-c3ccccn3)[nH]2)cc1` [D4476], the “Effect of kinase inhibitor on circadian period length” value (from here on “Effect of kinase inhibitor”) in the assay on Per2-dLuc U2OS cells is listed as “substantial dose-dependent increase in the period length”.
Take `Cc1cc2sc(NC(=O)Cc3ccccc3)nc2cc1Cl` [LH846]: the “Effect of kinase inhibitor” value in the assay with Per2-dLuc U2OS cells is on record as “substantial dose-dependent increase in the period length”.
`CC(C)n1cnc2c(NCc3cccc(C(F)(F)F)c3)ncnc21` [Longdaysin, longdaysin]: in the assay on U2OS cells, the “Average Fold-change Acot9 Q9Y305” value stood at 0.86, the “Average Fold-change Atp5f1e P56381” value was 0.88, the “Average Fold-change Bak1 Q16611” value turned out to be 1.18 and the “Average Fold-change Cdk7 P50613” value is recorded as 0.85. Also, in the assay with U2OS cells, the “Average Fold-change Col1a1 P02452” value was 0.83, the “Average Fold-change Csnk2a2 P19784” value amounted to 0.81, the “Average Fold-change Csnk1d P48730” value turned out to be 0.75 and the “Average Fold-change Ctsb P07858” value is given as 1.19. Besides, in the assay on U2OS cells, the “Average Fold-change Cyb5b O43169” value was 1.15, the “Average Fold-change Emsy Q7Z589” value worked out at 0.86, the “Average Fold-change Gusb P08236” value is 1.17 and the “Average Fold-change H1f0 P07305” value was 1.31. In the assay on U2OS cells, the “Average Fold-change Hist1h4a P62805” value was 1.36, the “Average Fold-change Hist2h3a Q71DI3” value is 1.28, the “Average Fold-change Krt9 P35527” value worked out at 0.78 and the “Average Fold-change Mapk1 P28482” value was 0.75. In the assay on U2OS cells, the “Average Fold-change Mapk14 Q16539” value turned out to be 0.78, the “Average Fold-change Nemf O60524” value came to 0.80, the “Average Fold-change Npc2 P61916” value was 1.20 and the “Average Fold-change Nucks1 Q9H1E3” value worked out at 1.22. Also, in the assay with U2OS cells, the “Average Fold-change Ppig Q13427” value was 0.89, the “Average Fold-change Rpl7a P62424” value was 0.85, the “Average Fold-change Rpl14 P50914” value is listed as 0.80 and the “Average Fold-change Rpl18 Q07020” value is 0.85. In the assay with U2OS cells, the “Average Fold-change Rpl28 P46779” value worked out at 0.86, the “Average Fold-change Rpl37 P61927” value came out at 0.87, the “Average Fold-change Rpl37a P61513” value was found to be 0.88 and the “Average Fold-change Smarcd2 Q92925” value is recorded as 0.88. For the same compound, in the assay on U2OS cells, the “Average Fold-change Spryd4 Q8WW59” value turned out to be 0.78, the “Average Fold-change Tecr Q9NZ01” value turned out to be 0.46 and the “Average Fold-change Terf2 Q15554” value turned out to be 1.15. For the same compound, the Circadian period length in the assay with Per2-dLuc U2OS cells was 35.1 ± 1.29 h. Besides, in the assay with Synechococcus elongatus, the “Effect on period length in cyanobacteria” value is listed as “do not affect period length”.
The IC50 is the point on the concentration scale where inhibition reaches its midpoint. As to `CC(C)[C@H](CO)Nc1nc(Nc2cccc(Cl)c2)c2ncn(C(C)C)c2n1` [Purvalanol A, purvalanol A], in the assay with U2OS cells, the “Average Fold-change Acsf2 Q96CM8” value is recorded as 1.16, the “Average Fold-change Alcam Q13740” value is reported as 1.20, the “Average Fold-change Arhgap29 Q52LW3” value was 1.19 and the “Average Fold-change Cav1 Q03135” value came out at 1.17. In addition, in the assay with U2OS cells, the “Average Fold-change Cavin1 Q6NZI2” value is given as 1.22, the “Average Fold-change Cavin2 O95810” value was determined as 1.29, the “Average Fold-change Cd47 Q08722” value is recorded as 1.17 and the “Average Fold-change Cdk6 Q00534” value is 0.86. In addition, in the assay with U2OS cells, the “Average Fold-change Cdk7 P50613” value is given as 0.74, the “Average Fold-change Cdkn1a P38936” value turned out to be 1.52, the “Average Fold-change Cdkn1b P46527” value worked out at 1.37 and the “Average Fold-change Cers5 Q8N5B7” value is 1.14. In the assay with U2OS cells, the “Average Fold-change Cks1b P61024” value is on record as 0.85, the “Average Fold-change Cks2 P33552” value worked out at 0.83, the “Average Fold-change Col1a1 P02452” value came to 0.80 and the “Average Fold-change Ctsb P07858” value is 1.29. Moreover, in the assay on U2OS cells, the “Average Fold-change Dpysl4 O14531” value is reported as 1.15, the “Average Fold-change Fas P25445” value is 1.18, the “Average Fold-change Gls O94925” value is 0.80 and the “Average Fold-change Gys1 P13807” value was 1.22. For the same compound, in the assay on U2OS cells, the “Average Fold-change H1f0 P07305” value is given as 1.20, the “Average Fold-change Hist1h4a P62805” value is on record as 1.50, the “Average Fold-change Hist2h3a Q71DI3” value is on record as 1.29 and the “Average Fold-change Hmga1 P17096” value was found to be 1.16. In the assay on U2OS cells, the “Average Fold-change Hmgcs1 Q01581” value is 0.77, the “Average Fold-change Hmgn2 P05204” value is given as 1.15, the “Average Fold-change Irf2bpl Q9H1B7” value was found to be 1.15 and the “Average Fold-change Itga2 P17301” value is listed as 1.20. Also, in the assay with U2OS cells, the “Average Fold-change Itga3 P26006” value was 1.17, the “Average Fold-change Naga P17050” value came out at 1.19, the “Average Fold-change Nbn O60934” value stood at 0.83 and the “Average Fold-change Npc2 P61916” value was 1.33. For the same compound, in the assay with U2OS cells, the “Average Fold-change Pak1 Q13153” value is 1.19, the “Average Fold-change Ppp1cc P36873” value was 0.85, the “Average Fold-change Psap P07602” value is recorded as 1.20 and the “Average Fold-change Rpl14 P50914” value stood at 0.75. Further, in the assay on U2OS cells, the “Average Fold-change S100a2 P29034” value turned out to be 1.30, the “Average Fold-change Selenoh Q8IZQ5” value was 1.14, the “Average Fold-change Slc5a3 P53794” value is recorded as 1.16 and the “Average Fold-change Slc20a1 Q8WUM9” value was found to be 1.20. Further, in the assay on U2OS cells, the “Average Fold-change Tada3 O75528” value was 1.28 and the “Average Fold-change Uhrf1 Q96T88” value amounted to 0.82. The compound further registered a Circadian period length with Per2-dLuc U2OS cells of 25.2 ± 0.04 h. Besides, the remaining activity at 100 µM at ERK1/MAPK3 (setting [1]) is 83.6%. For the same compound, the remaining activity at 100 µM on CDK2 came to 0.7%. The remaining activity at 100 µM at CAMK2d (setting [1]) was 53.2%. Besides, the remaining activity at 100 µM at ERK2/MAPK1 (setting [1]) came to 66.5%. Further, the remaining activity at 100 µM on CDK7 was determined as 3.8%. The remaining activity at 100 µM on CAMK1d (setting [1]) amounted to 49.2%. Moreover, on MST4/STK26 (setting [1]), the remaining activity at 100 µM was 32.7%. Moreover, on CK2a (setting [1]), the remaining activity at 100 µM was determined as 76.9%. In addition, on TNIK (setting [1]), the remaining activity at 100 µM worked out at 2.3%. Further, the IC50 at TNIK (10-dose, threefold serial dilution starting at 100 μM) is under 500 nM. In addition, on CK1d, the remaining activity at 100 µM was 21.7%. The “Effect on period length in cyanobacteria” value in the assay with Synechococcus elongatus is given as “do not affect period length”.
As to `CC[C@H](CO)Nc1nc(NCc2ccccc2)c2ncn(C(C)C)c2n1` [Roscovitine, roscovitine], the Circadian period length in the assay with Per2-dLuc U2OS cells turned out to be 28.9 ± 0.08 h. The remaining activity at 100 µM on ERK1/MAPK3 was found to be 59.1%; on CAMK2d it was 38.9%; on ERK2/MAPK1, 50.6%; at CDK7 it was 4%; on CAMK1d, 56.7%; on MST4/STK26, 40.1%. Besides, the remaining activity at 100 µM is 89.4% at CK2a and 7.8% at TNIK. In addition, in the assay with Synechococcus elongatus, the “Effect on period length in cyanobacteria” value was “do not affect period length”.
Regarding `COc1ccc2c(c1)/C(=C/c1cnc[nH]1)C(=O)N2` [SU9516], in the assay on Per2-dLuc U2OS cells, the “Effect of kinase inhibitor” value was “substantial dose-dependent increase in the period length”.
